Experimental data taken from ChEMBL document CHEMBL3045315, “Effect of ring A and ring B substitution on the cytotoxic potential of pyrazole tethered chalcones” (Med Chem Res, 2012).

System: PC-3
Test: Cytotoxicity against Homo sapiens (human) PC3 cells after 48 hr by SRB assay
Format: functional, cell-based
Details: PC-3, 48 h

In order of rising IC50:
1. COc1ccc(C2CC(c3ccc4ccccc4c3)=NN2C(C)=O)c(OC)c1OC (stereo not given)  610 nM
2. COc1cc(C2CC(c3cccc4ccccc34)=NN2C(C)=O)cc(OC)c1OC (stereo not given)  1090 nM
3. CC(=O)N1CC(c2ccc3c(c2)OCO3)C(c2ccc3ccccc3c2)=N1 (stereo not given)  1970 nM
4. COc1ccc(C2CC(c3ccc4ccccc4c3)=NN2C(C)=O)cc1O (stereo not given)  2040 nM
5. COc1ccc(C2CC(c3cccc([N+](=O)[O-])c3)=NN2C(C)=O)cc1OC (stereo not given)  6780 nM

System: HEp-2
Test: Cytotoxicity against Homo sapiens (human) Hep2 cells after 48 hr by SRB assay
Format: functional, cell-based
Details: HEp-2, 48 h

In order of rising IC50:
1. COc1ccc(C2CC(c3ccc4ccccc4c3)=NN2C(C)=O)c(OC)c1OC (stereo not given)  590 nM
2. CC(=O)N1CC(c2ccc3c(c2)OCO3)C(c2ccc3ccccc3c2)=N1 (stereo not given)  1010 nM
3. COc1cc(C2CC(c3cccc4ccccc34)=NN2C(C)=O)cc(OC)c1OC (stereo not given)  1010 nM
4. COc1ccc(C2CC(c3ccc4ccccc4c3)=NN2C(C)=O)cc1O (stereo not given)  1020 nM
5. COc1ccc(C2CC(c3cccc([N+](=O)[O-])c3)=NN2C(C)=O)cc1OC (stereo not given)  7810 nM

System: OVCAR
Test: Cytotoxicity against Homo sapiens (human) OVCAR cells after 48 hr by SRB assay
Format: functional, cell-based
Details: not given

In order of falling IC50:
1. COc1ccc(C2CC(c3cccc([N+](=O)[O-])c3)=NN2C(C)=O)cc1OC (stereo not given)  8110 nM
2. CC(=O)N1CC(c2ccc3c(c2)OCO3)C(c2ccc3ccccc3c2)=N1 (stereo not given)  3450 nM
3. COc1ccc(C2CC(c3ccc4ccccc4c3)=NN2C(C)=O)cc1O (stereo not given)  2160 nM
4. COc1cc(C2CC(c3cccc4ccccc34)=NN2C(C)=O)cc(OC)c1OC (stereo not given)  1770 nM
5. COc1ccc(C2CC(c3ccc4ccccc4c3)=NN2C(C)=O)c(OC)c1OC (stereo not given)  580 nM

System: IMR-32
Test: Cytotoxicity against Homo sapiens (human) IMR32 cells after 48 hr by SRB assay
Format: functional, cell-based
Details: IMR-32, 48 h

In order of falling IC50:
1. COc1ccc(C2CC(c3cccc([N+](=O)[O-])c3)=NN2C(C)=O)cc1OC (stereo not given)  6220 nM
2. CC(=O)N1CC(c2ccc3c(c2)OCO3)C(c2ccc3ccccc3c2)=N1 (stereo not given)  1560 nM
3. COc1cc(C2CC(c3cccc4ccccc34)=NN2C(C)=O)cc(OC)c1OC (stereo not given)  1540 nM
4. COc1ccc(C2CC(c3ccc4ccccc4c3)=NN2C(C)=O)cc1O (stereo not given)  1490 nM
5. COc1ccc(C2CC(c3ccc4ccccc4c3)=NN2C(C)=O)c(OC)c1OC (stereo not given)  780 nM
